In PubChem BioAssay AID212 (DTP/NCI, 2004):
Values joined by “and” are separate entries in the source; they are usually repeats but may differ in a detail not shown here. Equal entries are not always repeated. Records with an inconclusive call do not appear.

System: BDF1 mice, colon carcinoma 38 sc, T/C %
Assay: NCI In Vivo Anticancer Drug Screen. Data for tumor model Colon Carcinoma 38 (subcutaneous) in B6D2F1 (BDF1) mice
Details: endpoint: median tumor weight (est.), higher = larger tumour
Procedure, shortened: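 Ratio of survival or tumor size, compound-treated animals relative to vehicle controls, in tumor-bearing mice.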

[1] = dose: 25.0 mg/kg/injection, schedule: Q07DX002 (ip), vehicle: Klucel (hydroxypropylcellulose) (HPC)
[2] = dose: 50.0 mg/kg/injection, schedule: Q07DX002 (ip), vehicle: Klucel (hydroxypropylcellulose) (HPC)
[3] = dose: 50.0 mg/kg/injection, schedule: Q07DX003 (ip), vehicle: Klucel (hydroxypropylcellulose) (HPC)

With CC1(C)N=C(N)N=C(N)N1c1ccc(F)c(C(F)(F)F)c1 the T/C (dose: 1.56 mg/kg/injection, schedule: Q07DX002 (ip), vehicle: saline) was 87 % of control, the T/C (dose: 6.25 mg/kg/injection, schedule: Q07DX002 (ip), vehicle: saline) was 81 % of control and 84 % of control and the T/C (dose: 12.5 mg/kg/injection, schedule: Q07DX002 (ip), vehicle: saline) was 50 % of control and 64 % of control. For the same compound, the T/C (dose: 12.5 mg/kg/injection, schedule: Q07DX003 (ip), vehicle: suspension in saline) was 169 % of control, the T/C (dose: 25.0 mg/kg/injection, schedule: Q07DX002 (ip), vehicle: saline) was 79 % of control and 91 % of control and the T/C (dose: 25.0 mg/kg/injection, schedule: Q07DX003 (ip), vehicle: suspension in saline) was 161 % of control. For the same compound, the T/C (dose: 50.0 mg/kg/injection, schedule: Q07DX002 (ip), vehicle: saline) was 40 % of control and 60 % of control, the T/C (dose: 50.0 mg/kg/injection, schedule: Q07DX003 (ip), vehicle: suspension in saline) was 95 % of control and the T/C (dose: 100.0 mg/kg/injection, schedule: Q07DX003 (ip), vehicle: suspension in saline) was 104 % of control.
With CCSC(=O)N1c2ccc(OC)cc2C=CC1C#N (stereo not drawn) the T/C (dose: 12.5 mg/kg/injection, schedule: Q07DX002 (ip), vehicle: saline with Tween-80) was 70 % of control, the T/C (dose: 25.0 mg/kg/injection, schedule: Q07DX002 (ip), vehicle: saline with Tween-80) was 81 % of control and the T/C (dose: 100.0 mg/kg/injection, schedule: Q07DX002 (ip), vehicle: saline with Tween-80) was 107 % of control. The T/C (dose: 175.0 mg/kg/injection, schedule: Q07DX002 (ip), vehicle: saline with Tween-80) was 97 % of control, the T/C (dose: 350.0 mg/kg/injection, schedule: Q07DX002 (ip), vehicle: saline with Tween-80) was 115 % of control and 100 % of control and the T/C (dose: 400.0 mg/kg/injection, schedule: Q07DX002 (ip), vehicle: saline with Tween-80) was 61 % of control. The T/C (dose: 1400.0 mg/kg/injection, schedule: Q07DX002 (ip), vehicle: saline with Tween-80) was 75 % of control and 89 % of control.
In the case of NC(=O)/C=C/c1c[nH]c2nccnc12, the T/C (dose: 6.25 mg/kg/injection, schedule: Q07DX002 (ip), vehicle: water) is reported as 59 % of control, the T/C (dose: 12.5 mg/kg/injection, schedule: Q07DX002 (ip), vehicle: water) is reported as 97 % of control and the T/C (dose: 25.0 mg/kg/injection, schedule: Q07DX002 (ip), vehicle: water) is reported as 116 % of control. For the same compound, the T/C (dose: 100.0 mg/kg/injection, schedule: Q07DX002 (ip), vehicle: water) was 94 % of control.
With COc1cc(OC)c(OC)cc1/C=C\c1ccnc2ccccc12 the T/C (dose: 12.5 mg/kg/injection, schedule: Q07DX002 (ip), vehicle: Klucel (hydroxypropylcellulose) (HPC)) was 93 % of control, the T/C [1] was 120 % of control and the T/C [2] was 160 % of control and 171 % of control. For the same compound, the T/C (dose: 100.0 mg/kg/injection, schedule: Q07DX002 (ip), vehicle: Klucel (hydroxypropylcellulose) (HPC)) was 85 % of control and 97 % of control and the T/C (dose: 400.0 mg/kg/injection, schedule: Q07DX002 (ip), vehicle: Klucel (hydroxypropylcellulose) (HPC)) was 120 % of control.
With O=C(CCCN1CCC(O)(c2cccc(C(F)(F)F)c2)CC1)c1ccc(F)cc1 the T/C (dose: 6.25 mg/kg/injection, schedule: Q07DX003 (ip), vehicle: Klucel (hydroxypropylcellulose) (HPC)) was 78 % of control and 80 % of control, the T/C (dose: 12.5 mg/kg/injection, schedule: Q07DX003 (ip), vehicle: Klucel (hydroxypropylcellulose) (HPC)) was 84 % of control and 95 % of control and the T/C (dose: 25.0 mg/kg/injection, schedule: Q07DX003 (ip), vehicle: Klucel (hydroxypropylcellulose) (HPC)) was 113 % of control and 93 % of control. For the same compound, the T/C [3] was 100 % of control.
For OC(CBr)C(O)C(O)C(O)CBr (stereo not drawn), the T/C [1] was 56 % of control, the T/C (dose: 25.0 mg/kg/injection, schedule: Q07DX003 (ip), vehicle: saline with Tween-80) was 85 % of control and the T/C [2] was 103 % of control. For the same compound, the T/C [3] was 75 % of control, the T/C (dose: 100.0 mg/kg/injection, schedule: Q07DX003 (ip), vehicle: Klucel (hydroxypropylcellulose) (HPC)) was 122 % of control and the T/C (dose: 200.0 mg/kg/injection, schedule: Q07DX003 (ip), vehicle: Klucel (hydroxypropylcellulose) (HPC)) was 32 % of control. For the same compound, the T/C (dose: 200.0 mg/kg/injection, schedule: Q07DX003 (ip), vehicle: saline with Tween-80) was 123 % of control, the T/C (dose: 400.0 mg/kg/injection, schedule: Q07DX003 (ip), vehicle: Klucel (hydroxypropylcellulose) (HPC)) was 7 % of control and the T/C (dose: 400.0 mg/kg/injection, schedule: Q07DX003 (ip), vehicle: saline with Tween-80) was 105 % of control.
